One test concerns the target human MCH1 receptor (Homo sapiens, UniProt Q99705). Format: cell-based. Further details: expressed in transfected cells; host or cells: COS-7. As to conditions: linear regression, r^2=0.94. How it is done:
Guidelines for cell preparation and assay of the second messenger inositol phosphate (IP) are described below for a typical protocol involving transiently transfected Cos-7 cells; For a 96 well microplate format assay, cells are plated at 70,000 cells per well and allowed to incubate for 24 hours after the transfection procedure. The cells are then labeled with 0.5 μCi [^3H]myo-inositol per micro-well over night at 37° C., 5% CO2. Immediately before the assay, the medium is removed and replaced with 90 μl PBS containing 10 mM LiCl. The plates are then incubated for 15 minutes at 37° C., […]. Following the incubation, the transfectants are challenged with agonist (10 μl/well; 10× concentration) for 30 minutes at 37° C., 5% CO2. The challenge is terminated and the cells lysed by the addition of 100 μl cold 5% v/v trichloroacetic acid (TCA), followed by an incubation at 4° C. for greater than 30 minutes. Total IPs are isolated from the lysate by ion exchange chromatography. Briefly, the lysed contents of the wells are transferred to a Multiscreen HV filter plate (Millipore) containing 100 μl Dowex AG1-X8 suspension (50% v/v, water:resin) (200-400 mesh, formate form). The filter plates are placed on a vacuum manifold to wash and elute the resin bed. Each well is first washed 2 times with 200 μl 5 mM myoinositol. Total [^3H]IPs are eluted with 75 μl of 1.2 M ammonium formate/0.1 M formic acid into Wallac 96-well plates. 200 μl of SuperMix scintillation cocktail is added to each well, mixed well, allowed to equilibrate and counted on a Micro Beta Trilux scintillation counter. (Note: The assay may be scaled to a 24 well format by simple adjustment of reagent volumes and employing individual chromatographic columns.)
The expression vector (pEXJ) containing the MCH1 cDNA was transfected by electroporation into Cos-7 cells in combination with an expression vector (pEXJ) containing the Gα16 subunit.

For test [1], the system named is micturition reflex, conscious male Sprague Dawley rats. The test is described as follows: Continuous Slow Transvesicular Infusion (CSTI) rat model. Format: in vivo. On the set-up: key to Effect of MCH1 antagonist in the CSTI model: B = Produced an increase in bladder capacity in rats relative to baseline capacity.
In test [2] the test system is micturition reflex, anesthetized female Sprague Dawley rats. The test is described as follows: Distension-induced rhythmic contraction (DIRC) model. Type of test: in vivo, rat. On the set-up: key: A = Produced a significant increase in contraction interval relative to pre-drug interval. The following applies: contraction interval, i.v. or i.p. The procedure:
The effects of compounds on the micturition reflex were assessed in the “distension-induced rhythmic contraction” (DIRC), as described in previous publications (e.g. Maggi et al, 1987; Morikawa et al, 1992), and Continuous Slow Transvesicular Infusion (CSTI) models in rats.
Female Sprague Dawley rats weighing approximately 300 g were anesthetized with subcutaneous urethane (1.2 g/kg). The trachea was cannulated with PE240 tubing to provide a clear airway throughout the experiment. A midline abdominal incision was made and the left and right ureters were isolated. The ureters were ligated distally (to prevent escape of fluids from the bladder) and cannulated proximally with PE10 tubing. The incision was closed using 4-0 silk sutures, leaving the PE10 lines routed to the exterior for the elimination of urine. The bladder was canulated via the transurethral route using PE50 tubing inserted 2.5 cm beyond the urethral opening. This cannula was secured to the tail using tape and connected to a pressure transducer. To prevent leakage from the bladder, the cannula was tied tightly to the exterior urethral opening using 4-0 silk.
To initiate the micturition reflex, the bladder was first emptied by applying pressure to the lower abdomen, and then filled with normal saline in […] (maximum 2 ml) until spontaneous bladder contractions occurred (typically 20-40 mmHg at a rate of one contraction every 2 to 3 minutes. Once a regular rhythm was established, vehicle (saline) or Test Compounds were administered i.v. or i.p. to explore their effects on bladder activity. The 5-HT1A antagonist WAY-100635 was given as a positive control. Data were expressed as contraction interval (in seconds) before drug application (basal), or after the application of vehicle or test article.

For test [3], the target named is T1, human dopamine D4 receptor (Homo sapiens, UniProt P21917).
T1 construct: purchased BioSignal, Inc. (Montreal, Canada)
T1 sequence (P21917 whole entry): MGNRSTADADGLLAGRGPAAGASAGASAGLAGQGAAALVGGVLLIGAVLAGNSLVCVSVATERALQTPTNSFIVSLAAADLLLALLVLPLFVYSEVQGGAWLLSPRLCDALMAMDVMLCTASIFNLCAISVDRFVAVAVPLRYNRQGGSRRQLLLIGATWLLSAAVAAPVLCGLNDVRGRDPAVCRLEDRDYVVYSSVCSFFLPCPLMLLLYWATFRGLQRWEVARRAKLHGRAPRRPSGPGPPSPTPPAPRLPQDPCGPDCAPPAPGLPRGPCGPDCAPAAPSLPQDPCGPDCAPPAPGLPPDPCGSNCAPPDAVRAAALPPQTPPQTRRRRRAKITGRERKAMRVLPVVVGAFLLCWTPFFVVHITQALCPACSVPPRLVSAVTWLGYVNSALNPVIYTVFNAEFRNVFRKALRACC
As to the kind of experiment: Binding affinity at the human dopamine D4 receptor. As to conditions: Table 3d; * = >50000; read-out: hD4 Ki. The text has this:
Other receptors: Cell membranes expressing human dopamine D1, D2, D4 and rat D3 receptors were purchased through BioSignal, Inc. (Montreal, Canada). Binding assays using the histamine H1 receptor; dopamine receptors; and α1A, α1B, and α2 adrenergic receptors may be carried out according to the procedures described in U.S. Pat. No. 5,780,485, the disclosure of which is hereby incorporated by reference in its entirety into this application. Binding assays using the dopamine D5 receptor may be carried out according to the procedures described in U.S. Pat. No. 5,882,855, the disclosure of which is hereby incorporated by reference in its entirety into this application. Binding assays for the human α1D adrenergic receptor may be carried out according to the procedures described in U.S. Pat. No. 6,156,518, the disclosure of which is hereby incorporated by reference in its entirety into this application.

Where only a bound is given, the exact number is not on record here.

What is called Ki is a measure of affinity in units of concentration, obtained from inhibition or displacement.

Chain of human MCH1 receptor (Q99705 whole entry): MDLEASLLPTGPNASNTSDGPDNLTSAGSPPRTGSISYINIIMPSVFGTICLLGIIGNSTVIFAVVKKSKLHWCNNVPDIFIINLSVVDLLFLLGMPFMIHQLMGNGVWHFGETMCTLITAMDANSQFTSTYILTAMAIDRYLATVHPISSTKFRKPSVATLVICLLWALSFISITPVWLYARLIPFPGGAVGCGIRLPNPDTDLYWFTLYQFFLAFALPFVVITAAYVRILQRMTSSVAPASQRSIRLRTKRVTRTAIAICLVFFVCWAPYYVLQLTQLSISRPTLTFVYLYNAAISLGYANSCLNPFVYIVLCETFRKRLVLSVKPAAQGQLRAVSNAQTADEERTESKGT

As for `COCC1=C(C(=O)OC)[C@H](c2ccc(F)c(F)c2)N(C(=O)NCCCN2CCC(c3cccc(NC(C)=O)c3)CC2)C(=O)N1` [Example 10, (+)-1,2,3,6-TETRAHYDRO-1-{N-[4-(3,-ACETAMIDO)-PHENYLPIPERIDIN-1-YL]PROPYL}CARBOXAMIDO-4-METHOXYMETHYL-6-(3,4-DIFLUORO-PHENYL)-2-OXOPYRIMIDINE-5-CARBOXYLIC ACID METHYL ESTER], the “slope of the Schild plot” value at human MCH1 receptor is given as 0.97±0.2. The “bladder capacity (% basal)” value in test [1] (0.03 mg/kg, p.o., n=6 each, p<0.05) is “Significantly different from corresponding vehicle control”. Further, the “Effect of MCH1 antagonist in the CSTI model” value in test [1] (bladder capacity, intragastric) is listed as “B”. The “Effect of MCH1 antagonist in the DIRC model” value in test [2] is recorded as “A”. The Ki in test [3] was greater than 50 µM.
